Experimental data from patent publication US6458816B1, “Modified prodrug forms of AP/AMP” (Vion Pharmaceuticals, Inc., priority 2000, dated 2002).

Legend:
solid tumors = details: phase 1, patients with solid tumors; cited from earlier work
[1] = Solubility in aqueous solution; type: physicochemical
[2] = Pharmacokinetic Study in beagle dogs at 20-80 mg/kg; type: in vivo, beagle dogs (Canis familiaris); details: 30 and 40 mg/kg level
Procedure: Drug levels were determined for the animals at the intervals which are indicated in attached FIGS. 12-15.

[3] = Rising dose pharmacokinetic and toxicokinetic study in dogs with clinical observations; type: in vivo; details: dog, Triapine itself dosed at 3 mg/kg, separate study
Procedure: Initially, both prodrugs were studied at a single dose of 7.5-7.7 mg/kg (equivalent to 3 mg/kg of Triapine).
PK parameters of Triapine and the two prodrugs are presented in Tables 4 and 5 and are compared to those obtained, in a separate study, from administration of 3 mg/kg of Triapine (equivalent to approximately 7.5 mg/kg of prodrugs).
Serum prodrug peak concentrations and AUCs, on the other hand, were not linear with dose, and appeared to be saturated at the doses investigated. Serum concentration-time profiles of prodrugs and Triapine are presented in attached FIGS. 4 and 5. […] The sustained serum Triapine levels were presumably attributable to the high serum levels of prodrugs as well as their low total body clearance.
Treatment-related clinical observations were recorded for both dogs. […] These observations were not present on day 2. The only adverse clinical sign on day 2 was the absence of stool.
Treatment-related clinical observations were recorded for the female treated at 80 mg/kg. […] In addition, the dog was pale (pallor), diarrhea was noted, and had yellow mucous in the stool. All observations were noted on day 1 and the dog was recovered on day 2.

[4] = system: M109 murine lung carinoma; experiment: Activity in the M109 Lung Carcinoma Model; type: in vivo, Balb/c mice; details: for Relative Activity: CTX=Cytoxan
Source text: Twelve (12) 3-AP prodrugs have been evaluated for efficacy and toxicity using the M109 murine lung carinoma model in Balb/c mice. The procedure of the experiment is as follows: eight week aged female Balb/c mice (about 20 grams) were subcutaneously inoculated with 5×10^5/mouse of M109 murine lung carinoma cells at the right flank on day 0. The mice were then randomly grouped and each group consisted of 8-10 mice. 3-AP was used with the Triapine™ formulation while all 3-AP prodrugs were either dissolved or suspended in sterile deionized water. The body weight of mice and the tumor volume were measured twice weekly until the tumor in the control group became necrotic or at least one animal was dead in the control group.

[5] = In vivo PK of ortho phosphate bearing 3-AP prodrugs, single intravenous dose, beagle dog; details: for V/F of 3-AP: 3-AP in dog after i.v. prodrug; for Cmax of 3-AP: equimolar doses (equivalent to 3 mg/kg of 3-AP)
Procedure: The pharmacokinetics of 3-AP prodrugs were characterized following administration of a single intravenous dose of 7.2-8.5 mg/kg of 3-AP phosphate prodrugs (equivalent to 3 mg/kg of 3-AP) to a beagle dog. The animal was dosed once with each prodrug weekly. After each dose, a washout period of at least 6 days was maintained before the next dose was administered. Concentrations of 3-AP (Triapine) and prodrug in serum were determined by HPLC and used to calculate various PK parameters. These PK parameters were compared to those of 3-AP from equimolar doses from a separate study. Mean serum drug concentration versus time data were analyzed by both compartmental and non-compartmental models. AUC, total body clearance (Cl), steady-state volume of distribution (Vd,ss), terminal half-life (T1/2), Cmax, Tmax were calculated for both 3-AP and the prodrugs.
Ortho-phosphate prodrug was shown previously to undergo rapid bioconversion to 3-AP when incubated in vitro with alkaline phosphatase. […] At no time have we been able to detect the presence of the intermediary phenol which is the expected cleavage product. […] The 4-chloro (16), 5-methoxy (9) and 5-fluoro (7) analogs were promising in this regard as reflected in their AUCs and half-lives.
Pharmacokinetic parameters of 3-AP itself following i.v. administration of equimolar doses of the prodrugs are presented in Table 3, below.

M109 lung carinoma cells = experiment: Efficacy of 3-AP prodrugs on M109 Lung Carcinoma in Balb/c Mice; type: in vivo; details: M109-bearing Balb/c mice
Source text: Drug treatment was started on day 5 according to the above schedule. […] The drinking water was autoclaved before use.

Human serum stability = type: in vitro ADME; details: incubation in human serum
Procedure: Bioconversion of prodrugs to 3-AP catalyzed by alkaline phosphatase. The bioactivation of dimethyl para-prodrug and a subset of the ortho phosphate prodrugs was studied using 4.65×10^−5 unit of phosphatase enzyme solution (Type VII-SA, from Bovine Intestinal Mucose, Sigma). Upon incubation with phosphatase, all the prodrugs were converted cleanly to the parent drug 3-AP. Under these experimental conditions, there was no significant increase in the half-life (T1/2) of bioactivation of ortho phosphate prodrugs compared to that of unsubstituted ortho prodrug (Table 1, below). Human serum stability studies were conducted by incubating the prodrugs at 37° C. in human serum.

[6] = 5.5 (bid) mpk ip, day 3-7, 10-14
[7] = 60QD mpk ip, day 3-7, 10-14, 17-21
[8] = 3-AP in dog serum after i.v. prodrug, equimolar doses
[9] = 3-AP in dog serum after i.v. prodrug
[10] = prodrug in dog serum, single i.v. dose 7.2-8.5 mg/kg
[11] = prodrug in dog serum, single i.v. dose 7.2-8.5 mg/kg (equivalent to 3 mg/kg of 3-AP)
[12] = prodrug in dog, single i.v. dose 7.2-8.5 mg/kg
[13] = 100QD mpk ip, day 3-7, 10-14, 17-21

For `NC(=S)N/N=C/c1ccc(O)cn1` [5-HP], the activity in patients (solid tumors) is listed as “inactive”.

For `NC(=S)N/N=C/c1ncccc1N` [3-AP (1A)], the “solubility in aqueous solution” value [1] was “less than 0.1 mg/ml”, the “toxicity to the animals” value [2] was “toxic” and the Cmax ([3]; Table 5) was 2.3 µg/mL. The “AUC of Triapine” value [3] was 124 mg·min/L, the “Cmax of Triapine” value [3] was 2.3 µg/mL and the “V/F of Triapine” value [3] was 3.57 L/kg. For the same compound, the “BW Loss (%)” value [4, 6] was 8.09%, the “Inhibition (%)” value [4, 6] was 60% and the “Relative Activity” value [4, 6] was “<CTX”. The “half life of 3-AP itself in the dog” value ([5]; 3-AP itself dosed, dog serum) was about 1.5 h.

In the case of `NC(=S)N/N=C/c1ncccc1NC(=O)OCc1cc(Cl)c(Cl)cc1OP(=O)(O)O` [4,5-Di-Cl-(13)], the “BW Loss (%)” value [4, 7] is reported as 10.0%, the “Inhibition (%)” value [4, 7] is reported as 57% and the “Relative Activity” value [4, 7] is reported as “<CTX”. For the same compound, the “V/F of 3-AP” value ([5]; equimolar doses) was 3.14 L/kg, the “AUC of 3-AP” value [5, 8] was 392 µg·min/L and the “T1/2 of 3-AP” value [5, 8] was 1.7 h. The “Cmax of 3-AP” value [5, 9] was 2.7 µg/mL, the AUC of prodrug [5, 10] was 21499 µg·min/L and the Cmax of prodrug [5, 11] was 220 µg/mL.

In the case of `NC(=S)N/N=C/c1ncccc1NC(=O)OCc1cc([N+](=O)[O-])ccc1OP(=O)(O)O` [5-NO2-(8)], the “BW Loss (%)” value [4, 7] is reported as 9.7%, the “Inhibition (%)” value [4, 7] is reported as 33% and the “Relative Activity” value [4, 7] is reported as “<<CTX”. For the same compound, the “V/F of 3-AP” value ([5]; equimolar doses) was 4.27 L/kg, the “AUC of 3-AP” value [5, 8] was 84 µg·min/L and the “T1/2 of 3-AP” value [5, 8] was 0.5 h. For the same compound, the “Cmax of 3-AP” value [5, 9] was 1.9 µg/mL, the AUC of prodrug [5, 10] was 3396 µg·min/L and the T1/2 of prodrug [5, 10] was 0.317 h. It also gave a Cmax of prodrug [5, 11] of 126 µg/mL, a Cl of prodrug [5, 12] of 2.33 mL/min/kg and a Vss of prodrug [5, 12] of 0.12 L/kg.

For `N/C(S)=N/N=C/c1ncccc1NC(=O)OCc1ccc(OP(=O)(O)O)cc1` [Para- (2), reference compound], the “AUC of 3-AP” value [5, 8] was 74.5 µg·min/L.

For `NC(=S)N/N=C/c1ncccc1NC(=O)OCc1ccccc1OP(=O)(O)O` [Ortho- (3), reference compound], the “toxicity to the animals” value [2] was “toxic”, the “reason treatment was stopped before the end of the experiment” value (M109 lung carinoma cells) was “severe toxic reactions or mortality of the mice” and the “BW Loss (%)” value ([4]; 48QD mpk ip, day 5-9, 12-16) was 12.6%. For the same compound, the “Inhibition (%)” value ([4]; 48QD mpk ip, day 5-9, 12-16) was 70%, the “Relative Activity” value ([4]; 48QD mpk ip, day 5-9, 12-16) was “<CTX” and the activity versus cytoxan ([4]; M-109 solid tumor bearing mice) was “comparable activity to that of cytoxan”. For the same compound, the “efficacy and toxicity versus parent 3-AP” value ([4]; M-109 solid tumor bearing mice) was “better efficacy with reduced toxicity than the parent 3-AP”, the “efficacy on M109 lung carcinoma compared with the 3-AP parent drug at the MTD” value ([4]; mice) was “better efficacy” and the “AUC of 3-AP” value [5, 8] was 698 µg·min/L. For the same compound, the Cmax ([5]; beagle, iv, prodrug in dog serum, single i.v. dose 7.2-8.5 mg/kg (equivalent to 3 mg/kg of 3-AP)) was 125 µg/mL, the half-life ([5]; beagle, iv, prodrug in dog serum, single i.v. dose 7.2-8.5 mg/kg, read-out: T1/2 of prodrug (converted)) was 5.9 h and the clearance ([5]; beagle, serum, iv, prodrug in dog, single i.v. dose 7.2-8.5 mg/kg, read-out: Cl of prodrug) was 0.11 mL/min/kg. The Vd ([5]; beagle, serum, iv, prodrug in dog, single i.v. dose 7.2-8.5 mg/kg, read-out: Vss of prodrug) was 0.14 L/kg and the AUC of prodrug [5, 10] was 63309 µg·min/L.

For `NC(=S)N/N=C/c1ncccc1NC(=O)OCc1cc(C(F)(F)F)ccc1OP(=O)(O)O` [5-CF3-(11)], the “BW Loss (%)” value [4, 13] was 9.1%, the “Inhibition (%)” value [4, 13] was 77% and the “Relative Activity” value [4, 13] was “<CTX”. The “V/F of 3-AP” value ([5]; equimolar doses) was 2.74 L/kg, the “AUC of 3-AP” value [5, 8] was 280 µg·min/L and the “T1/2 of 3-AP” value [5, 8] was 1.1 h. For the same compound, the “Cmax of 3-AP” value [5, 9] was 3.0 µg/mL, the AUC of prodrug [5, 10] was 9579 µg·min/L and the T1/2 of prodrug [5, 10] was 0.717 h. It also gave a Cmax of prodrug [5, 11] of 156 µg/mL, a Cl of prodrug [5, 12] of 0.86 mL/min/kg and a Vss of prodrug [5, 12] of 0.08 L/kg.

For `COc1ccc(COC(=O)Nc2cccnc2/C=N/NC(N)=S)c(OP(=O)(O)O)c1` [4-CH3O (17)], the “Half-life, Human Serum 37° C.” value (Human serum stability) was 13.3 h.

In the case of `NC(=S)N/N=C/c1ncccc1NC(=O)OCc1cc(Cl)cc(Cl)c1OP(=O)(O)O` [3,5-Di-Cl-(12)], the “BW Loss (%)” value [4, 7] is reported as 9.0%, the “Inhibition (%)” value [4, 7] is reported as 58% and the “Relative Activity” value [4, 7] is reported as “<CTX”. For the same compound, the “V/F of 3-AP” value ([5]; equimolar doses) was 3.99 L/kg, the “AUC of 3-AP” value [5, 8] was 163 µg·min/L and the “T1/2 of 3-AP” value [5, 8] was 0.9 h. For the same compound, the “Cmax of 3-AP” value [5, 9] was 2.1 µg/mL, the AUC of prodrug [5, 10] was 6939 µg·min/L and the T1/2 of prodrug [5, 10] was 0.567 h. For the same compound, the Cmax of prodrug [5, 11] was 140 µg/mL, the Cl of prodrug [5, 12] was 1.2 mL/min/kg and the Vss of prodrug [5, 12] was 0.08 L/kg.

With `NC(=S)N/N=C/c1ncccc1NC(=O)OCc1c(OP(=O)(O)O)ccc(Cl)c1Cl` [5,6-Di-Cl-(14)] the “BW Loss (%)” value [4, 7] was 7.0%, the “Inhibition (%)” value [4, 7] was 59% and the “Relative Activity” value [4, 7] was “<CTX”. For the same compound, the “V/F of 3-AP” value ([5]; equimolar doses) was 2.32 L/kg, the “T1/2 of 3-AP” value [5, 8] was 1.6 h and the “Cmax of 3-AP” value [5, 9] was 3.6 µg/mL. For the same compound, the AUC of prodrug [5, 10] was 34211 µg·min/L and the Cmax of prodrug [5, 11] was 202 µg/mL.

In the case of `Cc1cccc(COC(=O)Nc2cccnc2/C=N/NC(N)=S)c1OP(=O)(O)O` [3-CH3-(15)], the “BW Loss (%)” value ([4]; 60QD mpk ip, day 3-7, 10-14) is reported as 7.9%, the “Inhibition (%)” value ([4]; 60QD mpk ip, day 3-7, 10-14) is reported as 64% and the “Relative Activity” value ([4]; 60QD mpk ip, day 3-7, 10-14) is reported as “<CTX”. The “V/F of 3-AP” value ([5]; equimolar doses) was 5.18 L/kg, the “AUC of 3-AP” value [5, 8] was 998 µg·min/L and the “T1/2 of 3-AP” value [5, 8] was 7.8 h. The “Tmax of 3-AP” value [5, 8] was 7.8 min, the “Cmax of 3-AP” value [5, 9] was 1.5 µg/mL and the AUC of prodrug [5, 10] was 66756 µg·min/L. The T1/2 of prodrug [5, 10] was 5.3 h, the Cmax of prodrug [5, 11] was 147 µg/mL and the Cl of prodrug [5, 12] was 0.11 mL/min/kg. For the same compound, the Vss of prodrug [5, 12] was 0.08 L/kg.
